The values that follow come from patent publication US7390630B1, “Method of identifying a compound that selectively inhibits cytokine-stimulated T cell induced production of TNF-alpha by monocytes” (Mathilda and Terence Kennedy Institute of Rheumatology Trust, priority 1999, dated 2008).

Values joined by “and” are separate entries in the source; they are usually repeats but may differ in a detail not shown here. Identical values can stand only once.

Assay [1] deals with monocyte TNFα production induced by anti-CD3 antibody stimulated T-cells (Ttcr cells). As to the kind of experiment: Ttcr cell-induced TNFα production by monocytes (co-culture, ELISA). The assay is classed as cell-based, Human. To be noted: Homo sapiens, Monocyte; T cells:monocytes 5:1, 18 h co-culture; read-out: IC50, inhibition of monocyte TNFα production induced by Ttcr cells. The protocol: Human peripheral blood T cells and monocytes were isolated from single donor plateletpheresis residues (purchased from the North London Blood Transfusion service, Colindale, GB). Mononuclear cells were isolated by Ficoll/Hypaque centrifugation (specific density 1.077 g/ml, Nycomed Pharma AS, Oslo, Norway), prior to cell separation in a Beckman JE6 elutriator. Elutriation was performed in culture medium containing 1% heat-inactivated foetal calf serum (FCS) using methods known in the art (see Sebbag et al., 1997, Parry et al., 1997). T cell and monocyte purity were assessed by flow cytometry (see Sebbag et al., 1997).
Ttcr cells: Ttcr cells were prepared from elutriation enriched T cells by resuspending the cells at a density of 10^6 cells/ml in RPMI 1640 (containing 10% heat inactivated AB+ human serum (Biowhittaker, UK). Following resuspension, the cells were incubated (at 37° C. in a 5% CO2/95% humidified incubator) in 6-well culture plates with immobilised anti-CD3 monoclonal antibodies for 24 hours (OKT3, ATCC, Maryland, USA), the antibodies having previously been coated on to the 6-well culture plates at 10 μg/ml (overnight at 4° C.).
Following completion of the culture period, the Tck and Ttcr cells were harvested and washed three times in RPMI medium containing 1% heat-inactivated fetal calf serum (FCS), prior to fixation for 1 minute at 0° C. in PBS containing 0.05% glutaraldehyde, and neutralized with an equivalent volume of T lymphocyte neutralizing buffer containing 0.2 M glycine. […]
Reagents for the TNFα ELISA were provided by Dr. W. Buurman (Rijks Universiteit Limburg, Maastricht, Netherlands). […] The rabbit polyclonal antibody was detected using a peroxidase-conjugated goat anti-rabbit IgG (H+L) (Jackson Immunoresearch Laboratories Inc., Westgrove, PE, USA) followed by an appropriate substrate. […]
Monocytes were treated with M-CSF for 2 days as described above, infected with adenovirus containing either an insert encoding IκBα (AdvIκBα) or no insert (Adv0). The effect of IκBα over-expression on T cell-induced monocyte (ratio 5:1) TNFα production was then determined.
(ELISA stands for enzyme-linked immunosorbent assay.)

Assay [2] concerns monocyte TNFα production induced by RA CD3+ enriched cells. Description: Monocyte TNFα production induced by fixed RA synovial CD3+ enriched T cells. Format: cell-based, Human. To be noted: RA T cells:monocytes 5:1, 18 h. The method, then:
Rheumatoid arthritis (RA) mononuclear cells were obtained from synovial tissue specimens provided by the Rheumatology Clinic, Charing Cross Hospital, London, UK. Tissue was teased into small pieces and digested in medium containing 0.15 mg/ml DNase type 1 (Sigma, UK) and 5 mg/ml collagenase (Roche, UK) for 1 to 2 hours at 37° C. After passing cells through nylon mesh to exclude cell debris, cells were washed and resuspended in RPMI medium (Biohittaker, Verviers, Belgium) (containing 10% heat-inactivated FCS) at a density of 1×10^6 cells/ml and used immediately.
CD3+ enriched cells were isolated from RA synovial mononuclear cells by direct, positive selection using Dynabeads (Dynal UK Ltd, Wirral, UK) coated with anti-CD3 monoclonal antibodies (anti-CD3 mAbs). Briefly, mononuclear cells (1×10^7) were cultured with 100 μl anti-CD3 mAb-coated Dynabeads for 20 minutes at 4° C. under constant rotation. Cells attached to beads were isolated using a magnetic particle concentrator (Dynal, Merseyside, UK) and cultured for 6 hours at 37° C. Detached cells were removed from magnetic beads and washed three times using the magnetic particle concentrator.
This technique allowed for isolation of CD3+ cells, yielding cells of high purity (>99%) and viability (>95%). Following isolation, CD3+ enriched cells were washed three times in RPMI medium containing 1% heat-inactivated FCS, fixed for 1 minute at 0° C. in phosphate-buffered saline (PBS) containing 0.05% glutaraldehyde, and neutralized with an equivalent volume of T lymphocyte neutralizing buffer containing 0.2 M glycine. Following a further three washes, the fixed CD3+ cells were resuspended (at a concentration of 2×10^6 cell/ml) in RPMI medium containing 5% heat-inactivated FCS, and stored for up to 7 days at 4° C. until used. Prior to use, CD3+ enriched cells were washed twice in complete medium.
Monocytes were cultured at 1×10^6 cells/ml in RPMI 1640 medium (containing 5% heat-inactivated FCS) in round-bottomed 96-well culture plates (Nunc Life Technologies Ltd., Paisley, Scotland) in the presence of fixed T cells at varying T-cell/monocyte ratios ranging from 1:1 to 7:1 (as indicated). In some experiments, a semi-permeable membrane insert (Nunc Life Technologies Ltd., Paisley, Scotland) was fitted into the culture wells to physically separate the monocytes from the T cells. In all experiments, efficient fixation of T cells was tested by incubating an aliquot of T-cells (7×10^6 cells/ml) in the absence of monocytes and assaying the amount of TNFα released by the cells under these conditions. Lipopolysaccharide (LPS, 10 ng/ml) was included in experiments as a positive control for monocyte cytokine production.
Reagents for the TNFα ELISA were provided by Dr. W. Buurman (Rijks Universiteit Limburg, Maastricht, Netherlands). The ELISA was performed using immobilized anti-TNFα mAb 61E71. and developed using a rabbit anti-TNFα polyclonal antibody. An alternative ELISA for TNFα is commercially available from Pharmingen. The rabbit polyclonal antibody was detected using a peroxidase-conjugated goat anti-rabbit IgG (H+L) (Jackson Immunoresearch Laboratories Inc., Westgrove, PE, USA) followed by an appropriate substrate. The sensitivity range of the assay was 1.6 to 5000 pg/ml.
For monocyte/T-cell co-culture experiments, monocytes were cultured with relevant enzyme inhibitors at 37° C. for varying periods of time (see legend to Table 2) prior to co-culture with fixed T-cells for 18 hours. Supernatants were harvested and assayed for presence of TNFα by ELISA. Cell suspensions were taken for determination of cell viability. […]
The effect of wortmannin and LY294002 was also studied on monocyte TNFα production induced by RA CD3+ ve enriched cells (see Table 2). Normal monocytes isolated by elutriation were treated with selective enzyme inhibitors for the designated times prior to co-culture with fixed rheumatoid CD3+ T cells at a ratio 5:1 (T cells to monocytes) for 18 hours. […]

`O=c1cc(N2CCOCC2)oc2c(-c3ccccc3)cccc12` [LY294002]: the IC50 in assay [1] stood at 70 nM. Besides, the “TNFα” value in assay [2] (LY294002 50 μM 30 min, Wortmannin 500 nM 30 min, AKTA 5 mM 30 min, Rapamycin 10 μM 60 min, untreated control 686 ± 59, mean ±SD) was 883 ± 304 pg/mL and 883 ± 38 pg/mL. Besides, the Percent change entry in assay [2] (change of TNFα versus untreated control, LY294002 50 μM, Wortmannin 500 nM, AKTA 5 mM, Rapamycin 10 μM) is “+29%”.

As usually defined, the IC50 is the concentration needed to halve the response being measured.
